Measured values from US8716252B2, “(Methylsulfonyl) ethyl benzene isoindoline derivatives and their pharmaceutical uses” (Celgene Corporation, priority 2009, dated 2014).

melting point: 135 to 137 °C
SMILES: CCOc1cc([C@@H](CS(C)(=O)=O)N2Cc3cccc(N)c3C2=O)ccc1OC [Example 5.5, 7-amino-2-[(1S)-1-(3-ethoxy-4-methoxy-phenyl)-2-methanesulfonyl-ethyl]-2,3-dihydro-isoindol-1-one]
